# Measurements as given in patent US20210311061A1, “USE OF TROP-2 AS PREDICTIVE MARKER OF RESPONSE TO ANTI-TUMOR THERAPY BASED ON INHIBITORS OF CD9, AKT AND MOLECULES OF THE TETRASPANIN SIGNALLING NETWORK” (ONCOXX BIOTECH S.R.L., priority 2012, published 2021).
# T1: Trop-2 (human, wild-type) (human, UniProt P09758 27-323)
# T1 construct: whole, on cells; Full-length protein expressed in cells (MTE 4-14 transfectants, MCF7); also called T2
# T1 sequence (looked up): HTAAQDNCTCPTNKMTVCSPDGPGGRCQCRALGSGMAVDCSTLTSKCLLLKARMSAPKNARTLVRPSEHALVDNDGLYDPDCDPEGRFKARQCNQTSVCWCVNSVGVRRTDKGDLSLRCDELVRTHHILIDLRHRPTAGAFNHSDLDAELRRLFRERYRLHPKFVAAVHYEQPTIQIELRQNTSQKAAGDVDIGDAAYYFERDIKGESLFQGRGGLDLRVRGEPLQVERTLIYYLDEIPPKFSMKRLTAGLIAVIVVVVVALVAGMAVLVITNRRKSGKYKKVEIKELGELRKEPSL
# Columns and labels:
# [1] = test system: MTE 4-14 cells transfected with Trop-2; assay: Xenografts in athymic nude mice, MTE 4-14 transfected with Trop-2; conditions: MTE 4-14/Trop-2; 0.35 mg/mouse intraperitoneally every day; in vivo growth curves
# Description: (§1) MTE 4-14 immortalized cell line transfected with Trop-2 (Alberti, Nutini et al. 1994), or Colo205 colon cancer cells, endogenously expressing Trop-2, were injected subcutaneously (4×10^6 cells/injection) into nude mice groups (8 weeks females, CD1-Foxn1 nu/nu mice (Charles River Laboratories, Calco, Lecco, Italy). MTE 4-14 cells transfected with Trop-2 were co-injected with Matrigel 1:3 vol/vol (growth factor reduced matrix, BD Biosciences, Franklin Lakes, N.J. USA). A stock solution of MK-2206 in DMSO was diluted at the time of use in apyrogenic saline solution, to a final concentration of 0.7 mg/ml, and the drug was administered intraperitoneally at a dose of 0.35 mg/mouse every day, starting from the time in which the tumors became palpable. Control group mice were treated with the vehicle alone. Mice were visually inspected every 5-7 days and the major and minor diameters of the experimental tumors were measured. The tumor volume was calculated using the formula for the volume of ellipsoid (Dxd2/2). MTE 4-14 cells transfected with the empty vector were not tumorigenic in this model. […]
# [2] = test system: Colo205 colon cancer cells; assay: Xenografts in athymic nude mice, Colo205; conditions: 0.35 mg/mouse intraperitoneally every day, in vivo growth curves
# Description: as §1
# Akt = assay: Western blot of Akt phosphorylation in MTE 4-14 transfectants with or without PMA; format: cell-based, murine
# Description: Western blotting was performed as previously described (El Sewedy, Fornaro et al. 1998). In brief, cell lysates were analyzed by electrophoresis on denaturing polyacrylamide gel (SDS-PAGE) and transfered onto nitrocellulose filters. Filters were incubated with the relevant primary antibodies (Abcam, Cambridge, UK; Santa Cruz) in TBS with 5% non-fat dried milk. Hybridized filters were washed in TBS, 0.1% Tween-20. […] Signal intensity was quantified with NIH-image 1.62, using as reference a Kodak gray-scale standards power curve (www.kodak.com).
# Trop-2 [3] = assay: Precipitation of cholesterol from BRIJ lysate, precipitation of Trop-2; conditions: MTE4-14 cells transfected with Trop-2; Western blot, FIG. 3f
# Description: Cells were also harvested by scraping and lysed in buffer with 1% BRIJ. The supernatant was mixed with either 1/10 (vol/vol) methanol (control) or 1/10 (vol/vol) 10% digitonin in methanol, and incubated on ice for 10 min. Cell membranes were recovered by centrifugation at 12,000 g for 15 min. The pellet was washed in cold acetone, resuspended in Laemmli buffer and analysed by Western blotting.
# [4] = test system: MTE 4-14 cells transfected with the empty vector; assay: In vitro cell-growth assay, MTE 4-14 cells transfected with the empty vector; format: cell-based, murine; conditions: siRNA transfection, growth curves, FIG. 7d
# Description: (§2) MTE 4-14 cells transfected with the empty vector or with Trop-2 were seeded at 1.5-3×10^3 cells/well in 96-well plates (five replica wells per data point). Cell numbers were quantified by the MTT colorimetric assay (Roche Molecular Biochemicals, Mannheim, Germany) or by staining with crystal violet. Cell numbers were normalised against a reference standard curve of serially diluted cell samples.
# (§3) Cells were treated with 50-100-200-400 nM A6730_SIGMA (Sigma Technical Company, St Louis, Mo. 63178-9916) or with 400 nM MK-2206 (Selleck Chemicals, Houston, Tex.) to inhibit Akt. Stock solutions were prepared in DMSO and diluited in ethanol or water, with the final concentration of DMSO and ethanol never exceeding 0.1% and 1% respectively. Control cells received vehicle alone. A second treatment was performed 24 hours after seeding.
# (§4) The corresponding constructs were transiently transfected into MTE 4-14 cells, and their effect on cell proliferation was evaluated. The levels of transcripts after silencing were quantified by real-time RT-PCR. siRNAs directed against irrelevant targets were used as negative controls, chosen after thorough verification of the absence of spurious effects on cell growth. […]
# [5] = test system: MTE 4-14 cells transfected with Trop-2; assay: In vitro cell-growth assay, MTE 4-14 cells transfected with Trop-2; format: cell-based, murine; conditions: siRNA transfection, growth curves, FIG. 7d
# Description: as §2, §3, §4
# Trop-2 [6] = assay: Depletion of cholesterol from cell membranes, release of Trop-2; format: cell-based; conditions: MTE4-14 cells transfected with Trop-2; 10 mM, 37° C., 45 min; Western blot, FIG. 3f
# Description: To deplete cell membranes of cholesterol, intact cells were washed three times in PBS to remove serum and incubated in DMEM with 10 mM methyl-β-cyclodextrin at 37° C. for 45 min. Control cells were processed in parallel in the absence of methyl-β-cyclodextrin. Samples were centrifuged at 2000 g to remove cells and cell debris. Proteins in the supernatant were precipitated in trichloroacetic acid and analysed by Western blotting.
# [7] = target: T1, Trop-2 (human, wild-type); assay: confocal microscopy of intact cells, co-capping and cell footprints, MTE 4-14 cells transfected with Trop-2
# Source text: FIG. 3. Interaction of Trop-2 and PKCα with tetraspanin molecules and CD9. (a-d) Confocal microscopy analysis of intact cell membranes (a), membrane areas showing co-capping (b), footprints of cell membranes (c, d) of MTE 4-14 cells transfected with Trop-2 (a-c, d top) or with the empty vector (d bottom) stained simultaneously with anti-Trop-2 and anti-CD9 (member of tetraspanin webs) or anti-caveolin (negative control) (a-c) or anti-CD9 and anti PKCα (d) conjugated with fluorescent molecules. Areas of colocalization are indicated by arrowheads. (e) Co-immunoprecipitation (IP) of Trop-2, PKCα, CD9 and tetraspanins. Immunoprecipitation was performed using primary antibodies against murine CD9, CD81 and CD151 (MTE 4-14cells) or human CD9, CD82 and CD151 (MCF7 cells); the presence of Trop-2 and PKCα in immunoprecipites was detected by Western blot. IP with anti-Trop-2: positive control. (f) Trop-2/cholesterol association. Release of Trop-2 in the culture medium after treatment with methyl-β-cyclodextrin (MβCD) (left). Precipitation of Trop-2 with digitonin from BRIJ lysate (right). The treatments were performed on MTE4-14 cells transfected with Trop-2, and the presence of Trop-2 in the soluble and insoluble fractions was assessed by Western blot.
molecule,measurement,setting,value
NC1(c2ccc(-c3nc4ccn5c(=O)[nH]nc5c4cc3-c3ccccc3)cc2)CCC1 [MK-2206],"Difference between control and treated tumors, P (two-way ANOVA)",[1],< 0.0001
same,"Difference between control and treated tumors, P (two-way ANOVA)",[2],< 0.0001
CCCCCCCCCCCCCC(=O)O[C@@H]1[C@@H](C)[C@@]2(O)[C@@H](C=C(CO)C[C@]3(O)C(=O)C(C)=C[C@@H]23)[C@@H]2C(C)(C)[C@]12OC(C)=O [PMA],Akt-S473 phosphorylation,"Akt; MTE 4-14 cells transfected with Trop-2, FIG. 6b","reduction, further increased by PMA"
same,Akt-T308 phosphorylation levels,"Akt; MTE 4-14 transfectants, FIG. 6b",no effect
C[C@@H]1CC[C@@]2(OC1)O[C@H]1[C@@H](O)[C@H]3[C@@H]4CC[C@H]5C[C@@H](O[C@@H]6O[C@H](CO)[C@H](O[C@@H]7O[C@H](CO)[C@@H](O)[C@H](O[C@@H]8OC[C@@H](O)[C@H](O)[C@H]8O)[C@H]7O[C@@H]7O[C@H](CO)[C@H](O)[C@H](O[C@@H]8O[C@H](CO)[C@@H](O)[C@H](O)[C@H]8O)[C@H]7O)[C@H](O)[C@H]6O)[C@H](O)C[C@]5(C)[C@H]4CC[C@]3(C)[C@H]1[C@@H]2C [digitonin],precipitation of Trop-2 from lysates of cell membranes in BRIJ,Trop-2 [3],precipitation of Trop-2
"anti-CD9 siRNA: anti-CD9 siRNA with target sense sequence 5′ GGTAGCAAGT GCATCAAAT 3′, expressed as hairpin RNA from pSUPER vector (sense GGTAGCAAGTGCATCAAAT; antisense ATTTGATGCACTTGCTACC; listed as Mus musculus)",proliferation of Trop-2-negative cells,[4],essentially no impact
same,proliferation of MTE 4-14 cells expressing Trop-2,[5],striking reduction
methyl-β-cyclodextrin,release of Trop-2 in the culture medium,Trop-2 [6],induce the release of Trop-2 in the culture medium
"caveolin (other, murine, UniProt P49817 2-178, looked up, Lipid-raft marker used as negative control in the confocal, co-capping and footprint analyses; also called caveolin-1) SGGKYVDSEGHLYTVPIREQGNIYKPNNKAMADEVTEKQVYDAHTKEIDLVNRDPKHLNDDVVKIDFEDVIAEPEGTHSFDGIWKASFTTFTVTKYWFYRLLSTIFGIPMALIWGIYFAILSFLHIWAVVPCIKSFLIEIQCISRVYSIYVHTFCDPLFEAIGKIFSNIRISTQKEI",binding result,[7],no binding
